Test results from patent publication US4950686A, “Anti-mycoplasma agent” (Shionogi & Co., Ltd., priority 1986, dated 1990).
In brackets after ≈: the same amount, converted by molar mass.

Key:
[1] = tested on: Mycoplasma gallisepticum T-7-T (wild strain, tylosin-resistant); assay: Mycoplasma gallisepticum air-sac infection method in chicken, strain T-7-T; type: in vivo, Mycoplasma gallisepticum; SPF chicken (white leghorn);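 as to Index of Isolation: index = (P×1 + Q×2 + R×3)/S with range 0 to 6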
In short: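 9-day-old SPF white leghorn chickens, fasted one day, received tylosin-resistant M. gallisepticum T-7-T culture (usually diluted 100×) into the right air sac. Compound was given as a single forced oral dose by cannula immediately after infection, in mg/ml. At day 5, air-sac lesions (0–3) were scored as a weighted index and organisms were re-isolated from the air sacs and trachea.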

[2] = tested on: Mycoplasma gallisepticum S6 (standard strain); assay: Mycoplasma gallisepticum air-sac infection method in chicken, strain S6; type: in vivo, Mycoplasma gallisepticum; SPF chicken (white leghorn)
In short: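 Right air sac of 9-day-old SPF white leghorn chickens (water/feed withheld 1 day) inoculated with 24-48 h culture diluted ~100×; compound given once orally by cannula right after infection. At day 5, air-sac lesions scored 0-3 (index = right + 2×left), and organisms isolated from both air sacs and trachea.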

[3] = tested on: Mycoplasma hyopneumoniae ST-11 (standard strain); assay: Anti-mycoplasma activity in vitro (MIC, broth dilution), strain ST-11; type: cell-based; conditions: Mesomycoplasma hyopneumoniae, Mh ST-11; read-out: MIC
In short: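 MIC by broth dilution in Hanks' solution with 0.5% lactoalbumin, yeast, equine serum and phenol red, pH 7.4-7.6. Inoculum: 3-4-day culture, turned yellow, diluted 10-fold in broth (subcultured first if yellowing took over 4 days).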

[4] = 100 mg/kg × once oral, 10 mg/ml sol. b, inoculum 10^2
[5] = 200 mg/kg × once oral, 20 mg/ml sol. a, inoculum 1.9 × 10^5
[6] = 200 mg/kg × once oral, 20 mg/ml sol. c, inoculum 1.9 × 10^5
[7] = 50 mg/kg × once oral, 5 mg/ml sol. b, inoculum 6.3 × 10^4
[8] = 100 mg/kg × once oral, 10 mg/ml sol. b, inoculum 1.2 × 10^6
[9] = 100 mg/kg × once oral, 10 mg/ml sol. b, inoculum 6.3 × 10^4
[10] = 200 mg/kg × once oral, 20 mg/ml sol. a, inoculum 3.1 × 10^5
[11] = 200 mg/kg × once oral, 20 mg/ml sol. c, inoculum 3.1 × 10^5

In the case of `O=c1cccccc1O` [Tropolone, tropolone], the “Change of air-sac, left: + (chickens)” value [1, 4] is reported as 0, the “Change of air-sac, left: ++ (chickens)” value [1, 4] is reported as 0 and the “Change of air-sac, left: +++ (chickens)” value [1, 4] is reported as 0. For the same compound, the “Change of air-sac, left: - (chickens)” value [1, 4] was 8, the “Change of air-sac, right: + (chickens)” value [1, 4] was 0 and the “Change of air-sac, right: ++ (chickens)” value [1, 4] was 0. For the same compound, the “Change of air-sac, right: +++ (chickens)” value [1, 4] was 0, the “Change of air-sac, right: - (chickens)” value [1, 4] was 8 and the “Isolation, L (left air-sac)” value [1, 4] was 1. For the same compound, the “Isolation, R (right air-sac)” value [1, 4] was 0, the “Isolation, T (trachea)” value [1, 4] was 1 and the “Mycoplasma Isolated Chickens” value [1, 4] was 2. The “Index of Isolation” value ([1]; 100 mg/kg × once oral, 10 mg/ml sol. b, inoculum 10^2, range 0-6.0) was 0.40, the “Index of Disease” value ([1]; 100 mg/kg × once oral, 10 mg/ml sol. b, inoculum 10^2, range 0-9.0) was 0 and the “Change of air-sac, left: + (chickens)” value [1, 5] was 0. For the same compound, the “Change of air-sac, left: ++ (chickens)” value [1, 5] was 0, the “Change of air-sac, left: +++ (chickens)” value [1, 5] was 0 and the “Change of air-sac, left: - (chickens)” value [1, 5] was 5. The “Change of air-sac, right: + (chickens)” value [1, 5] was 0, the “Change of air-sac, right: ++ (chickens)” value [1, 5] was 0 and the “Change of air-sac, right: +++ (chickens)” value [1, 5] was 0. The “Change of air-sac, right: - (chickens)” value [1, 5] was 5, the “Isolation, L (left air-sac)” value [1, 5] was 2 and the “Isolation, R (right air-sac)” value [1, 5] was 2. The “Isolation, T (trachea)” value [1, 5] was 3, the “Mycoplasma Isolated Chickens” value [1, 5] was 3 and the “Index of Isolation” value ([1]; 200 mg/kg × once oral, 20 mg/ml sol. a, inoculum 1.9 × 10^5, range 0-6.0) was 2.8. The “Index of Disease” value ([1]; 200 mg/kg × once oral, 20 mg/ml sol. a, inoculum 1.9 × 10^5, range 0-9.0) was 0, the “Change of air-sac, left: + (chickens)” value [1, 6] was 0 and the “Change of air-sac, left: ++ (chickens)” value [1, 6] was 0. The “Change of air-sac, left: +++ (chickens)” value [1, 6] was 0, the “Change of air-sac, left: - (chickens)” value [1, 6] was 5 and the “Change of air-sac, right: + (chickens)” value [1, 6] was 0. For the same compound, the “Change of air-sac, right: ++ (chickens)” value [1, 6] was 0, the “Change of air-sac, right: +++ (chickens)” value [1, 6] was 0 and the “Change of air-sac, right: - (chickens)” value [1, 6] was 5. For the same compound, the “Isolation, L (left air-sac)” value [1, 6] was 4, the “Isolation, R (right air-sac)” value [1, 6] was 4 and the “Isolation, T (trachea)” value [1, 6] was 5. The “Mycoplasma Isolated Chickens” value [1, 6] was 5, the “Index of Isolation” value ([1]; 200 mg/kg × once oral, 20 mg/ml sol. c, inoculum 1.9 × 10^5, range 0-6.0) was 5.2 and the “Index of Disease” value ([1]; 200 mg/kg × once oral, 20 mg/ml sol. c, inoculum 1.9 × 10^5, range 0-9.0) was 0. For the same compound, the “Change of air-sac, left: + (chickens)” value [2, 7] was 0, the “Change of air-sac, left: ++ (chickens)” value [2, 7] was 0 and the “Change of air-sac, left: +++ (chickens)” value [2, 7] was 0. For the same compound, the “Change of air-sac, left: - (chickens)” value [2, 7] was 5, the “Change of air-sac, right: + (chickens)” value [2, 7] was 2 and the “Change of air-sac, right: ++ (chickens)” value [2, 7] was 0. For the same compound, the “Change of air-sac, right: +++ (chickens)” value [2, 7] was 0, the “Change of air-sac, right: - (chickens)” value [2, 7] was 3 and the “Isolation, L (left air-sac)” value [2, 7] was 0. For the same compound, the “Isolation, R (right air-sac)” value [2, 7] was 2, the “Mycoplasma Isolated Chickens” value [2, 7] was 2 and the “Index of Disease” value ([2]; 50 mg/kg × once oral, 5 mg/ml sol. b, inoculum 6.3 × 10^4, range 0-9.0) was 0.4. For the same compound, the “Index of Isolation” value ([2]; 50 mg/kg × once oral, 5 mg/ml sol. b, inoculum 6.3 × 10^4, trachea ND, range 0-6.0) was 0.4, the “Change of air-sac, left: + (chickens)” value [2, 8] was 0 and the “Change of air-sac, left: ++ (chickens)” value [2, 8] was 0. For the same compound, the “Change of air-sac, left: +++ (chickens)” value [2, 8] was 0, the “Change of air-sac, left: - (chickens)” value [2, 8] was 8 and the “Change of air-sac, right: + (chickens)” value [2, 8] was 0. The “Change of air-sac, right: ++ (chickens)” value [2, 8] was 0, the “Change of air-sac, right: +++ (chickens)” value [2, 8] was 0 and the “Change of air-sac, right: - (chickens)” value [2, 8] was 8. For the same compound, the “Isolation, L (left air-sac)” value [2, 8] was 0, the “Isolation, R (right air-sac)” value [2, 8] was 0 and the “Isolation, T (trachea)” value [2, 8] was 0. The “Mycoplasma Isolated Chickens” value [2, 8] was 0, the “Index of Isolation” value ([2]; 100 mg/kg × once oral, 10 mg/ml sol. b, inoculum 1.2 × 10^6, range 0-6.0) was 0 and the “Index of Disease” value ([2]; 100 mg/kg × once oral, 10 mg/ml sol. b, inoculum 1.2 × 10^6, range 0-9.0) was 0. For the same compound, the “Change of air-sac, left: + (chickens)” value [2, 9] was 0, the “Change of air-sac, left: ++ (chickens)” value [2, 9] was 0 and the “Change of air-sac, left: +++ (chickens)” value [2, 9] was 0. For the same compound, the “Change of air-sac, left: - (chickens)” value [2, 9] was 5, the “Change of air-sac, right: + (chickens)” value [2, 9] was 1 and the “Change of air-sac, right: ++ (chickens)” value [2, 9] was 0. The “Change of air-sac, right: +++ (chickens)” value [2, 9] was 0, the “Change of air-sac, right: - (chickens)” value [2, 9] was 4 and the “Isolation, L (left air-sac)” value [2, 9] was 0. For the same compound, the “Isolation, R (right air-sac)” value [2, 9] was 0, the “Mycoplasma Isolated Chickens” value [2, 9] was 0 and the “Index of Disease” value ([2]; 100 mg/kg × once oral, 10 mg/ml sol. b, inoculum 6.3 × 10^4, range 0-9.0) was 0.2. For the same compound, the “Index of Isolation” value ([2]; 100 mg/kg × once oral, 10 mg/ml sol. b, inoculum 6.3 × 10^4, trachea ND, range 0-6.0) was 0, the “Change of air-sac, left: + (chickens)” value [2, 10] was 0 and the “Change of air-sac, left: ++ (chickens)” value [2, 10] was 0. The “Change of air-sac, left: +++ (chickens)” value [2, 10] was 0, the “Change of air-sac, left: - (chickens)” value [2, 10] was 5 and the “Change of air-sac, right: + (chickens)” value [2, 10] was 0. The “Change of air-sac, right: ++ (chickens)” value [2, 10] was 0, the “Change of air-sac, right: +++ (chickens)” value [2, 10] was 0 and the “Change of air-sac, right: - (chickens)” value [2, 10] was 5. The “Isolation, L (left air-sac)” value [2, 10] was 0, the “Isolation, R (right air-sac)” value [2, 10] was 1 and the “Isolation, T (trachea)” value [2, 10] was 0. The “Mycoplasma Isolated Chickens” value [2, 10] was 1, the “Index of Isolation” value ([2]; 200 mg/kg × once oral, 20 mg/ml sol. a, inoculum 3.1 × 10^5, range 0-6.0) was 0.2 and the “Index of Disease” value ([2]; 200 mg/kg × once oral, 20 mg/ml sol. a, inoculum 3.1 × 10^5, range 0-9.0) was 0. For the same compound, the “Change of air-sac, left: + (chickens)” value [2, 11] was 0, the “Change of air-sac, left: ++ (chickens)” value [2, 11] was 0 and the “Change of air-sac, left: +++ (chickens)” value [2, 11] was 0. The “Change of air-sac, left: - (chickens)” value [2, 11] was 5, the “Change of air-sac, right: + (chickens)” value [2, 11] was 0 and the “Change of air-sac, right: ++ (chickens)” value [2, 11] was 0. The “Change of air-sac, right: +++ (chickens)” value [2, 11] was 0, the “Change of air-sac, right: - (chickens)” value [2, 11] was 5 and the “Isolation, L (left air-sac)” value [2, 11] was 0. The “Isolation, R (right air-sac)” value [2, 11] was 0, the “Isolation, T (trachea)” value [2, 11] was 0 and the “Mycoplasma Isolated Chickens” value [2, 11] was 0. The “Index of Isolation” value ([2]; 200 mg/kg × once oral, 20 mg/ml sol. c, inoculum 3.1 × 10^5, range 0-6.0) was 0, the “Index of Disease” value ([2]; 200 mg/kg × once oral, 20 mg/ml sol. c, inoculum 3.1 × 10^5, range 0-9.0) was 0 and the MIC [3] was 0.78 µg/mL (≈ 6.39 µM).
